Measurements: PubChem BioAssay (NCI)
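At the GI50, growth is halved. TGI denotes the concentration required for complete inhibition of growth.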

Key:
Experiment in all cases: inhibition of tumour cell growth, NCI panel, 384-well format
T-47D breast = tested on: T-47D breast
BT-549 breast = tested on: BT-549 breast
HCC-2998 colon = tested on: HCC-2998 colon
K-562 leukemia = tested on: K-562 leukemia
MDA-MB-468 breast = tested on: MDA-MB-468 breast
IGROV1 ovarian = tested on: IGROV1 ovarian
UACC-257 melanoma = tested on: UACC-257 melanoma
NCI-H226 lung = tested on: NCI-H226 lung
HCT-116 colon = tested on: HCT-116 colon
DU-145 prostate = tested on: DU-145 prostate
SW-620 colon = tested on: SW-620 colon
HOP-62 NSCLC = tested on: HOP-62 NSCLC
TK-10 renal = tested on: TK-10 renal
MDA-MB-231 breast = tested on: MDA-MB-231 breast
OVCAR-5 ovarian = tested on: OVCAR-5 ovarian
COLO 205 colon = tested on: COLO 205 colon
NCI-H522 lung = tested on: NCI-H522 lung
PC-3 prostate = tested on: PC-3 prostate
ACHN renal = tested on: ACHN renal
SF-539 CNS = tested on: SF-539 CNS
NCI-H322M lung = tested on: NCI-H322M lung
UACC-62 melanoma = tested on: UACC-62 melanoma
EKVX NSCLC = tested on: EKVX NSCLC
SNB-19 CNS = tested on: SNB-19 CNS
SN12C renal = tested on: SN12C renal
MCF7 breast = tested on: MCF7 breast
KM12 colon = tested on: KM12 colon
HCT-15 colon = tested on: HCT-15 colon
OVCAR-8 ovarian = tested on: OVCAR-8 ovarian
RXF 393 renal = tested on: RXF 393 renal
MOLT-4 leukemia = tested on: MOLT-4 leukemia
786-0 renal = tested on: 786-0 renal
SK-OV-3 ovarian = tested on: SK-OV-3 ovarian
SF-268 CNS = tested on: SF-268 CNS
LOX IMVI melanoma = tested on: LOX IMVI melanoma
NCI-H460 NSCLC = tested on: NCI-H460 NSCLC
HT29 colon = tested on: HT29 colon
U251 glioblastoma = tested on: U251 glioblastoma
MALME-3M melanoma = tested on: MALME-3M melanoma
RPMI-8226 leukemia = tested on: RPMI-8226 leukemia
HOP-92 NSCLC = tested on: HOP-92 NSCLC
SK-MEL-28 melanoma = tested on: SK-MEL-28 melanoma
OVCAR-3 ovarian = tested on: OVCAR-3 ovarian
CCRF-CEM leukemia = tested on: CCRF-CEM leukemia
SK-MEL-5 melanoma = tested on: SK-MEL-5 melanoma
NCI/ADR-RES ovarian = tested on: NCI/ADR-RES ovarian
SF-295 CNS = tested on: SF-295 CNS
SNB-75 CNS = tested on: SNB-75 CNS
HS 578T breast = tested on: HS 578T breast
A498 renal = tested on: A498 renal
A549 NSCLC = tested on: A549 NSCLC
CAKI-1 renal = tested on: CAKI-1 renal
MDA-MB-435 melanoma = tested on: MDA-MB-435 melanoma
NCI-H23 lung = tested on: NCI-H23 lung
UO-31 renal = tested on: UO-31 renal
HL-60(TB) leukemia = tested on: HL-60(TB) leukemia
OVCAR-4 ovarian = tested on: OVCAR-4 ovarian
M14 melanoma = tested on: M14 melanoma

For `CN[C@@H](C)C(=O)N[C@H](C(=O)N1CCC[C@H]1c1nc(C(=O)c2ccc(F)cc2)cs1)C1CCCCC1`, the GI50 (T-47D breast) was 13.1 µM, the TGI (T-47D breast) was 27.6 µM and the GI50 (BT-549 breast) was 12 µM. It also gave a TGI (BT-549 breast) of 24.4 µM, a GI50 (HCC-2998 colon) of 14.2 µM and a TGI (HCC-2998 colon) of 27.4 µM. It also gave a GI50 (K-562 leukemia) of 16.8 µM, a TGI (K-562 leukemia) of 30.5 µM and a GI50 (MDA-MB-468 breast) of 1.86 µM. The TGI (MDA-MB-468 breast) was 13.8 µM, the GI50 (IGROV1 ovarian) was 21.2 µM and the TGI (IGROV1 ovarian) was 39.5 µM. For the same compound, the GI50 (UACC-257 melanoma) was 15.4 µM, the TGI (UACC-257 melanoma) was 28.8 µM and the GI50 (NCI-H226 lung) was 21.7 µM. The TGI (NCI-H226 lung) was 60.5 µM, the GI50 (HCT-116 colon) was 18 µM and the TGI (HCT-116 colon) was 32.3 µM. For the same compound, the GI50 (DU-145 prostate) was 17.9 µM, the TGI (DU-145 prostate) was 39.3 µM and the GI50 (SW-620 colon) was 23.9 µM. The TGI (SW-620 colon) was 47.8 µM, the GI50 (HOP-62 NSCLC) was 3.25 µM and the TGI (HOP-62 NSCLC) was 17.6 µM. The GI50 (TK-10 renal) was 21.2 µM, the TGI (TK-10 renal) was 53.3 µM and the GI50 (MDA-MB-231 breast) was 0.597 µM. It also gave a TGI (MDA-MB-231 breast) of 3.29 µM, a GI50 (OVCAR-5 ovarian) of 23.4 µM and a TGI (OVCAR-5 ovarian) of 51 µM. For the same compound, the GI50 (COLO 205 colon) was 17.1 µM, the TGI (COLO 205 colon) was 32.5 µM and the GI50 (NCI-H522 lung) was 6.47 µM. The TGI (NCI-H522 lung) was 20.8 µM, the GI50 (PC-3 prostate) was 19.5 µM and the TGI (PC-3 prostate) was 38.7 µM. For the same compound, the GI50 (ACHN renal) was 23.3 µM, the TGI (ACHN renal) was 56.7 µM and the GI50 (SF-539 CNS) was 17.5 µM. For the same compound, the TGI (SF-539 CNS) was 31.3 µM, the GI50 (NCI-H322M lung) was 20.3 µM and the TGI (NCI-H322M lung) was 51.4 µM. It also gave a GI50 (UACC-62 melanoma) of 18.7 µM, a TGI (UACC-62 melanoma) of 34.1 µM and a GI50 (EKVX NSCLC) of 18.7 µM. For the same compound, the TGI (EKVX NSCLC) was 41.3 µM, the GI50 (SNB-19 CNS) was 31.8 µM and the TGI (SNB-19 CNS) was greater than 100 µM. The GI50 (SN12C renal) was 53.8 µM, the TGI (SN12C renal) was greater than 100 µM and the GI50 (MCF7 breast) was 11.7 µM. It also gave a TGI (MCF7 breast) of 26.1 µM, a GI50 (KM12 colon) of 17.3 µM and a TGI (KM12 colon) of 32.2 µM. It also gave a GI50 (HCT-15 colon) of 20.3 µM, a TGI (HCT-15 colon) of 42 µM and a GI50 (OVCAR-8 ovarian) of 10.2 µM. The TGI (OVCAR-8 ovarian) was 24.1 µM, the GI50 (RXF 393 renal) was 0.409 µM and the TGI (RXF 393 renal) was 11.1 µM. For the same compound, the GI50 (MOLT-4 leukemia) was 13.1 µM, the TGI (MOLT-4 leukemia) was 25.7 µM and the GI50 ([…]-0 renal) was 15.8 µM. The TGI (786-0 renal) was 29.3 µM, the GI50 (SK-OV-3 ovarian) was 0.0692 µM and the TGI (SK-OV-3 ovarian) was 1.58 µM. It also gave a GI50 (SF-268 CNS) of 18.5 µM, a TGI (SF-268 CNS) of 36.9 µM and a GI50 (LOX IMVI melanoma) of 16.2 µM. For the same compound, the TGI (LOX IMVI melanoma) was 29.7 µM, the GI50 (NCI-H460 NSCLC) was 20.2 µM and the TGI (NCI-H460 NSCLC) was 34.8 µM. The GI50 (HT29 colon) was 17.1 µM, the TGI (HT29 colon) was 31.1 µM and the GI50 (U251 glioblastoma) was 15.9 µM. The TGI (U251 glioblastoma) was 29.7 µM, the GI50 (MALME-3M melanoma) was 0.33 µM and the TGI (MALME-3M melanoma) was 2.99 µM. For the same compound, the GI50 (RPMI-8226 leukemia) was 6.69 µM, the TGI (RPMI-8226 leukemia) was 20 µM and the GI50 (HOP-92 NSCLC) was 4.3 µM. It also gave a TGI (HOP-92 NSCLC) of 19 µM, a GI50 (SK-MEL-28 melanoma) of 16.4 µM and a TGI (SK-MEL-28 melanoma) of 30 µM. For the same compound, the GI50 (OVCAR-3 ovarian) was 11.4 µM, the TGI (OVCAR-3 ovarian) was 25.2 µM and the GI50 (CCRF-CEM leukemia) was 7.4 µM. It also gave a TGI (CCRF-CEM leukemia) of 20.7 µM, a GI50 (SK-MEL-5 melanoma) of 10.2 µM and a TGI (SK-MEL-5 melanoma) of 21.8 µM. The GI50 (NCI/ADR-RES ovarian) was 17.1 µM, the TGI (NCI/ADR-RES ovarian) was 34.9 µM and the GI50 (SF-295 CNS) was 16.4 µM. For the same compound, the TGI (SF-295 CNS) was 30.9 µM, the GI50 (SNB-75 CNS) was 10.1 µM and the TGI (SNB-75 CNS) was 25.6 µM. For the same compound, the GI50 (HS 578T breast) was 5.06 µM, the TGI (HS 578T breast) was 20.8 µM and the GI50 (A498 renal) was 15.5 µM. The TGI (A498 renal) was 29.1 µM, the GI50 (A549 NSCLC) was 26.8 µM and the TGI (A549 NSCLC) was greater than 100 µM. The GI50 (CAKI-1 renal) was 25.5 µM, the TGI (CAKI-1 renal) was 48.4 µM and the GI50 (MDA-MB-435 melanoma) was 14.1 µM. The TGI (MDA-MB-435 melanoma) was 33.5 µM, the GI50 (NCI-H23 lung) was 13.3 µM and the TGI (NCI-H23 lung) was 35.2 µM. The GI50 (UO-31 renal) was 30 µM, the TGI (UO-31 renal) was greater than 100 µM and the GI50 (HL-60(TB) leukemia) was 0.612 µM. The TGI (HL-60(TB) leukemia) was 3 µM, the GI50 (OVCAR-4 ovarian) was 0.044 µM and the TGI (OVCAR-4 ovarian) was 0.51 µM. It also gave a GI50 (M14 melanoma) of 18.2 µM and a TGI (M14 melanoma) of 32.2 µM.
